As usually defined, the Ki is a dissociation constant, usually derived from enzyme kinetics or from competition with a known ligand.

The source of these data is patent US8633205B2, “Substituted pyrrolo[2,3-d]pyrimidines as inhibitors of protein kinases” (Vertex Pharmaceuticals Incorporated, priority 2005, dated 2014).

What all share (format): biochemical
One test concerns the target PKA (Homo sapiens, UniProt P17612). Put plainly: PKA Inhibition Assay (coupled enzyme assay). Conditions: 50 μM ATP, 80 μM Kemptide, 18 nM PKA, 30 °C. The procedure: Compounds were screened for their ability to inhibit PKA using a standard coupled enzyme assay (Fox et al., Protein Sci, 1998, 7, 2249). Assays were carried out in a mixture of 100 mM HEPES (pH 7.5), 10 mM MgCl2, 25 mM NaCl, 1 mM DTT and 3% DMSO. Final substrate concentrations in the assay were 50 μM ATP (Sigma Chemicals) and 80 μM peptide (Kemptide, American Peptide, Sunnyvale, Calif.). Assays were carried out at 30 ° C. and 18 nM PKA. Final concentrations of the components of the coupled enzyme system were 2.5 mM phosphoenolpyruvate, 300 μM NADH, 30 μg/ml pyruvate kinase and 10 μg/ml lactate dehydrogenase.
An assay stock buffer solution was prepared containing all of the reagents listed above, with the exception of ATP, and the test compound of the present invention. 55 μl of the stock solution was placed in a 96 well plate followed by addition of 2 μl of DMSO stock containing serial dilutions of the test compound of the present invention (typically starting from a final concentration of 5 μM). The plate was preincubated for 10 minutes at 30° C. and the reaction initiated by addition of 5 μl of ATP (final concentration 50 μM). Initial reaction rates were determined with a Molecular Devices SpectraMax Plus plate reader over a 15 minute time course. IC50 and Ki data were calculated from non-linear regression analysis using the Prism software package (GraphPad Prism version 3.0a for Macintosh, GraphPad Software, San Diego, Calif., USA).

For another test, the target named is T1, ROCK (Homo sapiens, UniProt Q13464).
T1 construct: ROCK I (AA 6-553)
T1 sequence (Q13464 6-553): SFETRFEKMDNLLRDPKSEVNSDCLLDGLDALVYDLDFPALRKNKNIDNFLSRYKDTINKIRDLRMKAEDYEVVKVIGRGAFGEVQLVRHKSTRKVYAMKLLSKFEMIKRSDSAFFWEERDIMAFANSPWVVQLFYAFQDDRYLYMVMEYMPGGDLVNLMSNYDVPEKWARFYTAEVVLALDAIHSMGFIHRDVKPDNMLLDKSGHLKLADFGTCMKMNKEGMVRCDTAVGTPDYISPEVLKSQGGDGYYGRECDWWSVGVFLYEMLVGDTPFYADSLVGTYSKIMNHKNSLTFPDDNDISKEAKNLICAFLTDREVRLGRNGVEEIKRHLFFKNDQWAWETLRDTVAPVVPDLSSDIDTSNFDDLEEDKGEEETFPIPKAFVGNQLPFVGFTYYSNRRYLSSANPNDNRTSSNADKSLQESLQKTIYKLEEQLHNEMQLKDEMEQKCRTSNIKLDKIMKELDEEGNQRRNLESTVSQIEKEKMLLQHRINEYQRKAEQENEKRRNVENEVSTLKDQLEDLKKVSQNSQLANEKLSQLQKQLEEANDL
Description: ROCK Inhibition Assays. Conditions: read-out: ROCK enzyme inhibition (Ki). Here is the method:
Compounds are screened for their ability to inhibit ROCK I (AA 6-553) activity using a standard coupled enzyme system (Fox et al. Protein Sci. 7: 2249, 1998). Reactions are carried out in a solution containing 100 mM HEPES (pH 7.5), 10 mM MgCl2, 25 mM NaCl, 2 mM DTT and 1.5% DMSO. Final substrate concentrations in the assay are 45 μM ATP (Sigma Chemicals, St Louis, Mo.) and 200 μM peptide (American Peptide, Sunnyvale, Calif.). Reactions are carried out at 30 ° C. and 45 nM ROCK I. Final concentrations of the components of the coupled enzyme system are 2.5 mM phosphoenolpyruvate, 350 μM NADH, 30 μg/ml pyruvate kinase and 10 μg/ml lactate dehydrogenase.
Compounds are screened for their ability to inhibit ROCK using a standard radioactive enzyme assay. Assays are carried out in a solution containing 100 mM HEPES (pH 7.5), 10 mM MgCl2, 25 mM NaCl, 2 mM DTT and 1.5% DMSO. Final substrate concentrations in the assay are 13 μM [γ-^33P] ATP (25 mCi ^33P ATP/mmol ATP, Perkin Elmer, Cambridge, Mass./Sigma Chemicals, St Louis, Mo.) and 27 μM Myelin Basic Protein (MBP). Final enzyme concentration in the assay is 5 nM ROCK. Assays are carried out at room temperature. 1.5 μl of DMSO stock containing serial dilutions of the compound of the present invention (concentrations ranging from 10 μM to 2.6 nM) is placed in a 96 well plate. 50 μl of Solution 1 (100 mM HEPES (pH 7.5), 10 mM MgCl2, […] [γ-^33P] ATP) is added to the plate. The reaction is initiated by addition of 50 μl of Solution 2 (100 mM HEPES (pH 7.5), 10 mM MgCl2, 4 mM DTT, […] and 10 nM ROCK). After 2 hours the reaction is quenched with 50 μL of 30% trichloroacetic acid (TCA, Fisher) containing 9 mM ATP. Transfer of 140 μL of the quenched reaction to a glass fiber filter plate (Corning, Cat. No.3511) is followed by washing 3 times with 5% TCA. 50 μL of Optima Gold scintillation fluid (Perkin Elmer) is added and the plates are counted on a Top Count (Perkin Elmer). After removing mean background values for all of the data points the data is fit using Prism software to obtain a Ki(app).

For another test, the target named is T2, JAK3 (Homo sapiens, UniProt P52333).
T2 sequence (P52333 1-1124): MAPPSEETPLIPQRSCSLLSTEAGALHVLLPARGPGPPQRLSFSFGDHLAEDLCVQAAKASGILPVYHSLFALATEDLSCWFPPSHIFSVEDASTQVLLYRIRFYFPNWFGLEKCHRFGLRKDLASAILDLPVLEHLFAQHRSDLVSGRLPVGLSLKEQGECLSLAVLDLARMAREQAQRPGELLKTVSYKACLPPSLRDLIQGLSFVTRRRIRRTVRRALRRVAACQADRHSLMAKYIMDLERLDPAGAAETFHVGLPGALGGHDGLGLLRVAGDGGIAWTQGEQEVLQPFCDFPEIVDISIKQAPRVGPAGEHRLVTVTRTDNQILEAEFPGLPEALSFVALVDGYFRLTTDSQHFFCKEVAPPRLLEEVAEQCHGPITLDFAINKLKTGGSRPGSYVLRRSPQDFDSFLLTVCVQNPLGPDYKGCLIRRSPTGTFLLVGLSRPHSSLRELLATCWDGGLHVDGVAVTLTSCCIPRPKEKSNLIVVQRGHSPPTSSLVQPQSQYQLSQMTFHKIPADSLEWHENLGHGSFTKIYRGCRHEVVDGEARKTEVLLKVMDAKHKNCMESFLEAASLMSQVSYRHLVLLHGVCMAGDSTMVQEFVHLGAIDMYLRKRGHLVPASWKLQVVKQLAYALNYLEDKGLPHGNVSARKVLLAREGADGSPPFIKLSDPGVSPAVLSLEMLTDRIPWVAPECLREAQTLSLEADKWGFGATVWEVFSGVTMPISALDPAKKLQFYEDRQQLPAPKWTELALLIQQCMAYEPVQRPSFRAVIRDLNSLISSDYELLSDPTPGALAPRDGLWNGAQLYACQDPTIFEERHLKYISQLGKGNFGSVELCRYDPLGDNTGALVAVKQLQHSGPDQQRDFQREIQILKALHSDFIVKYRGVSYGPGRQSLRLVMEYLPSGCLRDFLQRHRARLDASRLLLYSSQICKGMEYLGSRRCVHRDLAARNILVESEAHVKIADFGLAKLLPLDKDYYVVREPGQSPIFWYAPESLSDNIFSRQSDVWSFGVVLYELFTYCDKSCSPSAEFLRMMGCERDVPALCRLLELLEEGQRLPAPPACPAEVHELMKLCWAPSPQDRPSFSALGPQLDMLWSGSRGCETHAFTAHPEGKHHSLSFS
Put plainly: JAK3 Inhibition Assay. The note with it: 1 μM poly(Glu)4Tyr, 5 μM ATP, 1 nM JAK3, 25 °C; read-out: JAK3 enzyme inhibition (Ki). The procedure:
(§1) Compounds were screened for their ability to inhibit JAK using the […] below. Reactions were carried out in a kinase buffer containing 100 mM HEPES (pH 7.4), 1 mM DTT, 10 mM MgCl2, 25 mM NaCl, and 0.01% BSA.
(§2) Substrate concentrations in the assay were 5 μM ATP (200 uCi/μmole ATP) 1 μM poly(Glu)4Tyr. Reactions were carried out at 25 ° C. and 1 nM JAK3.
(§3) To each well of a 96 well polycarbonate plate was added 1.5 μl of a JAK3 inhibitor along with 50 μl of kinase buffer containing 2 μM poly(Glu)4Tyr and 10 μM ATP. This was then mixed and 50 μl of kinase buffer 2 nM JAK3 enzyme was added to start the reaction. After 20 minutes at room temperature (25C), the reaction was stopped with 50 μl of 20% trichloroacetic acid (TCA) that also contained 0.4 mM ATP. The entire contents of each well were then transferred to a 96 well glass fiber filter plate using a TomTek Cell Harvester. After washing, 60 μl of scintillation fluid was added and ^33P incorporation detected on a Perkin Elmer TopCount.

In another test the target is JAK2 (Homo sapiens, UniProt O60674). Description: JAK2 Inhibition Assay. Conditions: 15 μM poly(Glu)4Tyr, 12 μM ATP; read-out: JAK2 enzyme inhibition (Ki). The procedure: as §1, §2, §3
Sequence of JAK2 (O60674 whole entry): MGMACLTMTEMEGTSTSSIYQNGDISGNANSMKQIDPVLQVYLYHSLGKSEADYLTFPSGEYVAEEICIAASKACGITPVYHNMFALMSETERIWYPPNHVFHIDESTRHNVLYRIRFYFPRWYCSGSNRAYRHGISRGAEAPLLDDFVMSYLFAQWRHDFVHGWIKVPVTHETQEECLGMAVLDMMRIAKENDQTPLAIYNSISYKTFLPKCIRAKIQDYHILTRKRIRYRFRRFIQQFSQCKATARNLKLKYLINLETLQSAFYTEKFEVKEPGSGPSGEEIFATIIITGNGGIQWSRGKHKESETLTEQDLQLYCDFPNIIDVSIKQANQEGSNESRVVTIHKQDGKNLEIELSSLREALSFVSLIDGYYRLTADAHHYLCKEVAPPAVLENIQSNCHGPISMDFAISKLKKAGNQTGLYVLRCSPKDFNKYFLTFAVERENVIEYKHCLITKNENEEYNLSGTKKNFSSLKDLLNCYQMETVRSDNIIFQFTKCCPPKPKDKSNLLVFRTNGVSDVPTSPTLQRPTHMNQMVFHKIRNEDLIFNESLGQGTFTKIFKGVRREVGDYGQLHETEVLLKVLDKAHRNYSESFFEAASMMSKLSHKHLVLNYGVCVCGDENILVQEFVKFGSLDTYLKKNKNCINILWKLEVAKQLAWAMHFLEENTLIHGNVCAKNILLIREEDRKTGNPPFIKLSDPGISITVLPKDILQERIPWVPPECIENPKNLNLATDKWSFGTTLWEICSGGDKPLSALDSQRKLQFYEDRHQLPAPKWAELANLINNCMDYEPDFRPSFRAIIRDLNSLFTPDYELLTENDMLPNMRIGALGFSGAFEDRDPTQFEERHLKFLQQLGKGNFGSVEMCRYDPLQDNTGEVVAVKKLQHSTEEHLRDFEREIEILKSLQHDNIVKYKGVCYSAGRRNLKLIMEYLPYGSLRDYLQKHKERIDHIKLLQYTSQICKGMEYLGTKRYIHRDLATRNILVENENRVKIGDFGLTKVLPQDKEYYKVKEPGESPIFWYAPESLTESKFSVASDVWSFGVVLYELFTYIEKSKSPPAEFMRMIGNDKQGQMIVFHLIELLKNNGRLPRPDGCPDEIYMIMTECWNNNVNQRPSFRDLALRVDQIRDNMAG
As described above in Example 11 except that JAK-2 enzyme is used, the final poly(Glu)4Tyr concentration is 15 μM, and final ATP concentration is 12 μM.

Structures are written as SMILES.

With `CC1CC=C(c2ncnc3[nH]ccc23)C1C` (centres unmarked) [Compound 19], the Ki on PKA was 500 to 5000 nM; at ROCK, 500 to 5000 nM; on JAK3 it was < 500 nM; at JAK2 it was < 500 nM.
As to `C(=C\c1ncnc2[nH]ccc12)/c1ccccc1` [Compound 4, 4-styryl-7H-pyrrolo[2,3-d]pyrimidine], the Ki on PKA is 500 to 5000 nM; on ROCK, 500 to 5000 nM; at JAK3, < 500 nM; at JAK2, < 500 nM.
In the case of `COC(=O)C(C)Cc1ncnc2[nH]ccc12` (centres unmarked) [Compound 24], the Ki at PKA is 500 to 5000 nM; on ROCK it was 500 to 5000 nM; at JAK3 it was > 5000 nM; on JAK2, > 5000 nM.
On to `CC(C)Cc1ncnc2[nH]ccc12` [Compound 25], for which the Ki on PKA, on ROCK, on JAK3 and on JAK2 was 500 to 5000 nM each time.
As to `C1=C(c2ncnc3[nH]ccc23)CCC1` [Compound 1, 4-cyclopentenyl-7H-pyrrolo[2,3-d]pyrimidine], the Ki at PKA is 500 to 5000 nM; on ROCK, 500 to 5000 nM; on JAK3, < 500 nM; at JAK2, < 500 nM.
Consider `C=C(c1ccccc1)c1ncnc2[nH]ccc12` [Compound 8, 4-(1-phenylvinyl)-7H-pyrrolo[2,3-d]pyrimidine], for which the Ki at PKA is 500 to 5000 nM; on ROCK it was 500 to 5000 nM; at JAK3, 500 to 5000 nM; on JAK2, > 5000 nM.
`CC(c1ccccc1)c1ncnc2[nH]ccc12` (centres unmarked) [Compound 23]: the Ki on PKA, on ROCK, at JAK3 and at JAK2 was 500 to 5000 nM throughout.
On to `O=C(CC(F)(F)F)N1CC=C(c2ncnc3[nH]ccc23)CC1` [Compound 16], for which the Ki at PKA was 500 to 5000 nM; at ROCK it was 500 to 5000 nM; on JAK3, > 5000 nM; at JAK2, 500 to 5000 nM.
As to `c1nc(C2CC3CCC2C3)c2cc[nH]c2n1` (centres unmarked) [Compound 26, 4-Bicyclo[2.2.1]hept-2-yl-7H-pyrrolo[2,3-d]pyrimidine], the Ki at PKA is 500 to 5000 nM; on ROCK it was 500 to 5000 nM; at JAK3 it was < 500 nM; on JAK2, < 500 nM.
On to `C1=C(c2ncnc3[nH]ccc23)CCNC1` [Compound 10], for which the Ki on PKA is 500 to 5000 nM; at ROCK it was 500 to 5000 nM; on JAK3, > 5000 nM; on JAK2, > 5000 nM.
For `N#CCCCCc1ncnc2[nH]ccc12` [Compound 28], the Ki at PKA, on ROCK, on JAK3 and on JAK2 was 500 to 5000 nM throughout.
